Assay results taken from patent US10105357B2, “Indication of antibiotic drugs for preparation of cancer inhibition pharmaceutical composition” (LAUNX BIOMEDICAL CO., LTD., priority 2014, dated 2018).
Structures can show the parent of a compound that is named as a salt. Where two headings read alike, the source gives them in different places.

Legend:
Format in all cases: cell-based, human
[1] = system: A375 (Amelanotic Melanoma); assay: Cell viability analysis, skin cancer A375; settings: Homo sapiens
[2] = system: AGS (Gastric Adenocarcinoma); assay: Cell viability analysis, gastric cancer AGS; settings: Homo sapiens
[3] = system: PC3 (p53−) (Prostate Adenocarcinoma); assay: Cell viability analysis, prostate cancer PC3; settings: Homo sapiens
[4] = system: HepG2 (Hepatocellular Carcinoma); assay: Cell viability analysis, hepatic cancer HepG2; settings: Homo sapiens
[5] = system: A549 (Lung Adenocarcinoma); assay: Cell viability analysis, lung cancer A549; settings: Homo sapiens
[6] = system: HeLa (Cervix Adenocarcinoma); assay: Cell viability analysis, cervical cancer HeLa; settings: Homo sapiens, HeLa
cancer cell lines = assay: Cell viability analysis (WST-1) on cancer cell lines; settings: drug 10 μM, 72 hours, WST-1; Table 3
[7] = system: HI650 (Lung Adenocarcinoma); assay: Cell viability analysis, lung cancer HI650; settings: Homo sapiens
[8] = system: TSGH-8301 (Urinary Bladder Carcinoma); assay: Cell viability analysis, bladder cancer TSGH-8301; settings: Homo sapiens
[9] = system: HL-60 (Acute Promyelocytic Leukemia); assay: Cell viability analysis, leukemia HL-60; settings: Homo sapiens
[10] = system: LoVo (Colorectal Adenocarcinoma); assay: Cell viability analysis, colon cancer LoVo; settings: Homo sapiens, LoVo
[11] = system: MKN-45 (Gastric Adenocarcinoma); assay: Cell viability analysis, gastric cancer MKN-45; settings: Homo sapiens
[12] = system: MCF7 (Mammary Gland, Adenocarcinoma); assay: Cell viability analysis, breast cancer MCF7; settings: Homo sapiens
[13] = A-375, 72 h, read-out: cell viability (survival rate), A375, drug 10 μM, 72 hours, WST-1, OD450 nm
[14] = 72 h, read-out: cell viability (survival rate), AGS, drug 10 μM, 72 hours, WST-1, OD450 nm
[15] = 72 h, read-out: cell viability (survival rate), PC3, drug 10 μM, 72 hours, WST-1, OD450 nm
[16] = HepG2, 72 h, read-out: cell viability (survival rate), HepG2, drug 10 μM, 72 hours, WST-1, OD450 nm
[17] = A549, 72 h, read-out: cell viability (survival rate), A549, drug 10 μM, 72 hours, WST-1, OD450 nm
[18] = 72 h, read-out: cell viability (survival rate), HeLa, drug 10 μM, 72 hours, WST-1, OD450 nm
[19] = NCI-H1650, 72 h, read-out: cell viability (survival rate), H1650, drug 10 μM, 72 hours, WST-1, OD450 nm
[20] = 72 h, read-out: cell viability (survival rate), TSGH, drug 10 μM, 72 hours, WST-1, OD450 nm
[21] = HL-60, 72 h, read-out: cell viability (survival rate), HL-60, drug 10 μM, 72 hours, WST-1, OD450 nm
[22] = 72 h, read-out: cell viability (survival rate), LoVo, drug 10 μM, 72 hours, WST-1, OD450 nm
[23] = MKN-45, 72 h, read-out: cell viability (survival rate), MKN-45, drug 10 μM, 72 hours, WST-1, OD450 nm
[24] = MCF7, 72 h, read-out: cell viability (survival rate), MCF7, drug 10 μM, 72 hours, WST-1, OD450 nm

Row | SMILES | viability at 10 µM [1, 13] [%] | viability at 10 µM [2, 14] [%] | viability at 10 µM [3, 15] [%] | viability at 10 µM [4, 16] [%] | viability at 10 µM [5, 17] [%] | viability at 10 µM [6, 18] [%] | inhibition effect on different cancer cell lines (cancer cell lines) | viability at 10 µM [7, 19] [%] | viability at 10 µM [8, 20] [%] | viability at 10 µM [9, 21] [%] | viability at 10 µM [10, 22] [%] | viability at 10 µM [11, 23] [%] | viability at 10 µM [12, 24] [%] | also measured
1 | Cc1ncc([N+](=O)[O-])n1CC(C)O (centres unmarked) [Secnidazole (Flagentyl), Secnidazole] | 117 | 78 | 81.6 | 99 | 69.2 | 124 | significant inhibition effect | 46.8 | 52.1 | 97.2 | 85.4 | 77.2 | 81 | –
2 | COc1cc2nc(N3CCN(C(=O)C4CCCO4)CC3)nc(N)c2cc1OC (centres unmarked) [Terazos in HCl (Hytrin), Terazosin HCl] | 77.9 | 56.8 | 40.5 | 93.4 | 21.3 | 60.7 | significant inhibition effect | 74.9 | 71.6 | 111 | 45.7 | 82.1 | 33.4 | –
3 | Clc1ccc(C(Cn2ccnc2)OCc2c(Cl)cccc2Cl)c(Cl)c1 (centres unmarked) [Isoconazole nitrate (Travogen), Isoconazole nitrate] | – | – | – | – | – | – | significant inhibition effect | – | – | – | – | – | – | viability at 10 µM ([1]; A-375, drug 10 μM, 72 hours, WST-1, OD450 nm, read-out: cell viability (survival rate), A375): 95%; viability at 10 µM ([2]; drug 10 μM, 72 hours, WST-1, OD450 nm, read-out: cell viability (survival rate), AGS): 74.8%; viability at 10 µM ([3]; drug 10 μM, 72 hours, WST-1, OD450 nm, read-out: cell viability (survival rate), PC3): 82.5%; viability at 10 µM ([4]; HepG2, drug 10 μM, 72 hours, WST-1, OD450 nm, read-out: cell viability (survival rate), HepG2): 99.4%; viability at 10 µM ([5]; A549, drug 10 μM, 72 hours, WST-1, OD450 nm, read-out: cell viability (survival rate), A549): 91.7%; viability at 10 µM ([6]; drug 10 μM, 72 hours, WST-1, OD450 nm, read-out: cell viability (survival rate), HeLa): 165%; viability at 10 µM ([7]; NCI-H1650, drug 10 μM, 72 hours, WST-1, OD450 nm, read-out: cell viability (survival rate), H1650): 102%; viability at 10 µM ([8]; drug 10 μM, 72 hours, WST-1, OD450 nm, read-out: cell viability (survival rate), TSGH): 88.2%; viability at 10 µM ([9]; HL-60, drug 10 μM, 72 hours, WST-1, OD450 nm, read-out: cell viability (survival rate), HL-60): 49.2%; viability at 10 µM ([10]; drug 10 μM, 72 hours, WST-1, OD450 nm, read-out: cell viability (survival rate), LoVo): 102%; viability at 10 µM ([11]; MKN-45, drug 10 μM, 72 hours, WST-1, OD450 nm, read-out: cell viability (survival rate), MKN-45): 126%; viability at 10 µM ([12]; MCF7, drug 10 μM, 72 hours, WST-1, OD450 nm, read-out: cell viability (survival rate), MCF7): 95.1%
4 | CCOC(=O)n1ccn(C)c1=S [Carbimazole] | 65.1 | 114 | 95.6 | 97.2 | 73.9 | 90.3 | significant inhibition effect | 80.9 | 117 | 80.1 | 75 | 131 | 102 | –
5 | CN1CCN(c2c(F)cc3c(=O)c(C(=O)O)cn4c3c2OCN4C)CC1 [Marbofloxacin] | 86.8 | 81.2 | 78.4 | 95.6 | 83.8 | 88.2 | significant inhibition effect | 80.3 | 91.6 | 105 | 108 | 112 | 92.3 | –
